Laboratory results taken from patent US12679843B2, “Pyrrolopyrimidine amines as complement inhibitors” (BioCryst Pharmaceuticals, Inc., priority 2020, dated 2026).

Each compound was assayed against Factor D (Homo sapiens, UniProt P00746) (assay: Factor D esterolytic assay (Z-Lys-SBzl thioester substrate, DTNB, 405 nm)). Settings: substrate Z-Lys-SBzl 1.29 mM, 100 mM HEPES, 500 mM NaCl, pH 7.5, 10% DMSO, tested a minimum of three times.
Factor D, sequence (P00746 26-253): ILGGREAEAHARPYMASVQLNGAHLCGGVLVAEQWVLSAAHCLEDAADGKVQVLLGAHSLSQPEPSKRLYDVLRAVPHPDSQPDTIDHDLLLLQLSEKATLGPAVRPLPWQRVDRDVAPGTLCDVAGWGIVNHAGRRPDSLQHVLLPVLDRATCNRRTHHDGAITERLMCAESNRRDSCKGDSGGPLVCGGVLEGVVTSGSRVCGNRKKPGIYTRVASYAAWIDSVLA
Type: biochemical
Outline: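 Human Factor D hydrolysis of Z-Lys-SBzl (1.29 mM) monitored at 405 nm via DTNB thiol detection for 600 s, 690 nm background subtracted. Buffer 100 mM HEPES, 500 mM NaCl, pH 7.5, 10% DMSO; substrate added immediately or after room-temperature preincubation. IC50 from percent inhibition of rate, at least three tests.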
In the case of `COc1cc(F)cc2c3c(N)ncnc3n(CC(=O)N3[C@@H]4C[C@@H]4C[C@H]3C(=O)Nc3cccc(Br)n3)c12` [Compound 280g, (1R,3S,5R)-2-(2-(4-amino-6-fluoro-8-methoxy-9H-pyrimido[4,5-b]indol-9-yl)acetyl)-N-(6-bromopyridin-2-yl)-2-azabicyclo[3.1.0]hexane-3-carboxamide], the IC50 is reported as under 0.1 µM.
`COc1cc(F)cc2c3c(N)ncnc3n(CC(=O)N3[C@H](C(=O)Nc4cccc(Br)n4)C[C@@]4(C)C[C@@H]34)c12` [Compound 281a, (1R,3S,5R)-2-(2-(4-amino-6-fluoro-8-methoxy-9H-pyrimido[4,5-b]indol-9-yl)acetyl)-N-(6-bromopyridin-2-yl)-5-methyl-2-azabicyclo[3.1.0]hexane-3-carboxamide] showed an IC50 of under 0.1 µM.
Compound `Cc1cc(O)cc2c3c(N)ncnc3n(CC(=O)N3[C@@H]4C[C@@H]4C[C@H]3C(=O)Nc3cccc(Br)n3)c12` [Compound 282a, (1R,3S,5R)-2-(2-(4-amino-6-hydroxy-8-methyl-9H-pyrimido[4,5-b]indol-9-yl)acetyl)-N-(6-bromopyridin-2-yl)-2-azabicyclo[3.1.0]hexane-3-carboxamide] has an IC50 of under 0.1 µM.
`Cc1ccnc2c3c(N)ncnc3n(CC(=O)N3[C@H](C(=O)Nc4cccc(Br)n4)C[C@@]4(C)C[C@@H]34)c12` [Compound 283g, (1R,3S,5R)-2-(2-(4-amino-8-methyl-9H-pyrido[2′,3′:4,5]pyrrolo[2,3-d]pyrimidin-9-yl)acetyl)-N-(6-bromopyridin-2-yl)-5-methyl-2-azabicyclo[3.1.0]hexane-3-carboxamide] was tested, and the IC50 was under 0.1 µM.
`Cc1ccnc2c3c(N)ncnc3n(CC(=O)N3[C@@H]4C[C@@H]4C[C@H]3C(=O)Nc3cccc(Br)n3)c12` [Compound 284a, (1R,3S,5R)-2-(2-(4-amino-8-methyl-9H-pyrido[2′,3′:4,5]pyrrolo[2,3-d]pyrimidin-9-yl)acetyl)-N-(6-bromopyridin-2-yl)-2-azabicyclo[3.1.0]hexane-3-carboxamide] gave an IC50 of under 0.1 µM.
`Cc1ccc2c(n1)c1c(N)ncnc1n2CC(=O)N1[C@@H]2C[C@@H]2C[C@H]1C(=O)Nc1cccc(Br)n1` [Compound 285g, (1R,3S,5R)-2-(2-(4-amino-6-methyl-9H-pyrido[2′,3′:4,5]pyrrolo[2,3-d]pyrimidin-9-yl)acetyl)-N-(6-bromopyridin-2-yl)-2-azabicyclo[3.1.0]hexane-3-carboxamide] showed an IC50 of under 0.1 µM.
With `Cc1ccc2c(n1)c1c(N)ncnc1n2CC(=O)N1[C@H](C(=O)Nc2cccc(Br)n2)C[C@@]2(C)C[C@@H]12` [Compound 286a, (1R,3S,5R)-2-(2-(4-amino-6-methyl-9H-pyrido[2′,3′:4,5]pyrrolo[2,3-d]pyrimidin-9-yl)acetyl)-N-(6-bromopyridin-2-yl)-5-methyl-2-azabicyclo[3.1.0]hexane-3-carboxamide] the IC50 was under 0.1 µM.
`Cc1cc(C(F)(F)F)cc2c3c(N)ncnc3n(CC(=O)N3[C@H](C(=O)Nc4cccc(Cl)n4)C[C@@]4(C)C[C@@H]34)c12` [Compound 287a, (1R,3S,5R)-2-(2-(4-amino-8-methyl-6-(trifluoromethyl)-9H-pyrimido[4,5-b]indol-9-yl)acetyl)-N-(6-chloropyridin-2-yl)-5-methyl-2-azabicyclo[3.1.0]hexane-3-carboxamide] showed an IC50 of under 0.1 µM.
In the case of `Cc1cc(-c2cccnc2)cc2c3c(N)ncnc3n(CC(=O)N3[C@@H]4C[C@@H]4C[C@H]3C(=O)Nc3cccc(Br)n3)c12` [Compound 288c, (1R,3S,5R)-2-(2-(4-amino-8-methyl-6-(pyridin-3-yl)-9H-pyrimido[4,5-b]indol-9-yl)acetyl)-N-(6-bromopyridin-2-yl)-2-azabicyclo[3.1.0]hexane-3-carboxamide], the IC50 is reported as under 0.1 µM.
In the case of `Cc1cc(-c2cccnc2)cc2c3c(N)ncnc3n(CC(=O)N3[C@H](C(=O)Nc4cccc(Br)n4)C[C@@]4(C)C[C@@H]34)c12` [Compound 289a, (1R,3S,5R)-2-(2-(4-amino-8-methyl-6-(pyridin-3-yl)-9H-pyrimido[4,5-b]indol-9-yl)acetyl)-N-(6-bromopyridin-2-yl)-5-methyl-2-azabicyclo[3.1.0]hexane-3-carboxamide], the IC50 is reported as under 0.1 µM.
`Nc1ncnc2c1c1nc(Br)ccc1n2CC(=O)N1[C@@H]2C[C@@H]2C[C@H]1C(=O)Nc1cccc(Br)n1` [Compound 290g, (1R,3S,5R)-2-(2-(4-amino-6-bromo-9H-pyrido[2′,3′:4,5]pyrrolo[2,3-d]pyrimidin-9-yl)acetyl)-N-(6-bromopyridin-2-yl)-2-azabicyclo[3.1.0]hexane-3-carboxamide] gave an IC50 of under 0.1 µM.
Compound `Cc1cc(C(F)(F)F)cc2c3c(N)ncnc3n(CC(=O)N3[C@@H]4C[C@@H]4C[C@H]3C(=O)Nc3cccc(Cl)n3)c12` [Compound 291a, (1R,3S,5R)-2-(2-(4-amino-8-methyl-6-(trifluoromethyl)-9H-pyrimido[4,5-b]indol-9-yl)acetyl)-N-(6-chloropyridin-2-yl)-2-azabicyclo[3.1.0]hexane-3-carboxamide] has an IC50 of under 0.1 µM.
`C[C@@]12C[C@@H](C(=O)Nc3cccc(Br)n3)N(C(=O)Cn3c4ccc(Br)nc4c4c(N)ncnc43)[C@@H]1C2` [Compound 292a, (1R,3S,5R)-2-(2-(4-amino-6-bromo-9H-pyrido[2′,3′:4,5]pyrrolo[2,3-d]pyrimidin-9-yl)acetyl)-N-(6-bromopyridin-2-yl)-5-methyl-2-azabicyclo[3.1.0]hexane-3-carboxamide] gave an IC50 of under 0.1 µM.
For `Nc1ncnc2ccc(CC(=O)N3C[C@H](F)C[C@H]3C(=O)NCc3cccc(Cl)c3F)cc12` [Compound 294c, (2S,4R)-1-(2-(4-aminoquinazolin-6-yl)acetyl)-N-(3-chloro-2-fluorobenzyl)-4-fluoropyrrolidine-2-carboxamide], the IC50 was over 1 µM.
Work on `Cc1cc(C(F)(F)F)cc2c3c(N)ncnc3n(CC(=O)N3[C@@H]4C[C@@H]4C[C@H]3C(=O)Nc3cncc(Br)n3)c12` [Compound 295a, (1R,3S,5R)-2-(2-(4-amino-8-methyl-6-(trifluoromethyl)-9H-pyrimido[4,5-b]indol-9-yl)acetyl)-N-(6-bromopyrazin-2-yl)-2-azabicyclo[3.1.0]hexane-3-carboxamide] yielded an IC50 of under 0.1 µM.
With `Cc1cc(C(F)(F)F)cc2c3c(N)ncnc3n(CC(=O)N3[C@H](C(=O)Nc4cncc(Br)n4)C[C@@]4(C)C[C@@H]34)c12` [Compound 296a, (1R,3S,5R)-2-(2-(4-amino-8-methyl-6-(trifluoromethyl)-9H-pyrimido[4,5-b]indol-9-yl)acetyl)-N-(6-bromopyrazin-2-yl)-5-methyl-2-azabicyclo[3.1.0]hexane-3-carboxamide] the IC50 was under 0.1 µM.
Compound `CNC(=O)Nc1ccc2c(c1)c1c(N)ncnc1n2CC(=O)N1[C@@H]2C[C@@H]2C[C@H]1C(=O)Nc1cccc(Br)n1` [Compound 297d, (1R,3S,5R)-2-(2-(4-amino-6-(3-methylureido)-9H-pyrimido[4,5-b]indol-9-yl)acetyl)-N-(6-bromopyridin-2-yl)-2-azabicyclo[3.1.0]hexane-3-carboxamide] has an IC50 of under 0.1 µM.
Work on `Nc1ncnc2c1c1nc(-c3ccccc3)ccc1n2CC(=O)N1[C@@H]2C[C@@H]2C[C@H]1C(=O)Nc1cccc(Br)n1` [Compound 298c, (1R,3S,5R)-2-(2-(4-amino-6-phenyl-9H-pyrido[2′,3′:4,5]pyrrolo[2,3-d]pyrimidin-9-yl)acetyl)-N-(6-bromopyridin-2-yl)-2-azabicyclo[3.1.0]hexane-3-carboxamide] yielded an IC50 of under 0.1 µM.
